In US20250122192A1, “5-PYRIMIDINECARBOXAMIDE DERIVATIVES AND METHODS OF USING THE SAME” (Rgenta Therapeutics, Inc., priority 2021, published 2025):

System: PMS1
Experiment: Mini-gene reporter assay-PMS1
Assay type: cell-based
Details: Homo sapiens; for activation at 5 µM: PMS1 mini-gene firefly luciferase reporter in HEK293 cells, read-out: PMS1% Effect at 5 μM; for IC50: HEK293, PMS1 mini-gene firefly luciferase reporter transiently transfected into HEK293 cells, read-out: PMS1 IC50
Excerpt: Biological Activity of the Compounds of the Present Disclosure Mini-gene reporter assay-PMS1
Mini-gene reporter constructs for each target site can be constructed by first PCR amplifying the region-of-interest including the sequence of the alternatively skipped, sequences of the immediate upstream and downstream introns, and sequences of the immediate upstream and downstream exons. Then the 3′end of the amplified sequence can be ligated to a firefly luciferase reporter gene and cloned into the pcDNA3.1 vector backbone. The final reporter construct can be transiently transfected into HEK293 cells using Lipofectamine 3000 transfection reagents. Compounds that can induce the inclusion of the skipped exon in the reporter construct would increase the reporter firefly luciferase activity.
Test compounds may be diluted in duplicates and dispensed into an assay plate. Transient mini-gene reporter cell line stock is resuspended and dispensed into the assay plate. Assay plates are then centrifuged and incubated. A luciferase reagent (e.g. ONE-Glo firefly luciferase reagent from Promega®) may be added to the assay plate and the luminescence (RLU) signals recorded. PMS1 EC50 values may be determined by curve fitting in Levenberg-Marquardt algorithm.

| SMILES | IC50 | activation at 5 µM |
| --- | --- | --- |
| CCOc1nc(N2CC(CO)C3(CNC3)C2)ncc1C(=O)Nc1cn2cc(C)nc2c(C)n1 (centres unmarked) [Compound 50] | – | < 50% |
| CCOc1nc(N2CC3(CCNC3)C2)ncc1C(=O)Nc1cn2cc(C)nc2c(C)n1 [Compound 51] | < 0.5 µM | – |
| CCOc1nc(N2CCC3(CCCN3)CC2)ncc1C(=O)Nc1cn2cc(C)nc2c(C)n1 [Compound 54] | < 0.5 µM | – |
| CCOc1nc(N(C)[C@@H]2C[C@H]3CC[C@@H](C2)N3)ncc1C(=O)Nc1cn2cc(C)nc2c(C)n1 [Compound 56] | 0.5 to 1 µM | – |
| CCOc1nc(N(C)C2CCNCC2)ncc1C(=O)Nc1cn2cc(C)nc2c(C)n1 [Compound 57] | < 0.5 µM | – |
| CCOc1nc(N2CCC(CNC(C)C)CC2)ncc1C(=O)Nc1cn2cc(C)nc2c(C)n1 [Compound 58] | 0.5 to 1 µM | – |
| CCOc1nc(N2CCC3(CC2)COC(C)CN3)ncc1C(=O)Nc1cn2cc(C)nc2c(C)n1 (centres unmarked) [Compound 61] | > 3 µM | – |
| CCOc1nc(N2CCC(CNC)C2)ncc1C(=O)Nc1cn2cc(C)nc2c(C)n1 (centres unmarked) [Compound 62] | < 0.5 µM | – |
| CCOc1nc(N2CCNC(CC)C2)ncc1C(=O)Nc1cn2cc(C)nc2c(C)n1 (centres unmarked) [Compound 63] | 0.5 to 1 µM | – |
| CCOc1nc(N2CCC3(CCN3)CC2)ncc1C(=O)Nc1cn2cc(C)nc2c(C)n1 [Compound 64] | < 0.5 µM | – |
| CCOc1nc(N2CCN[C@@H](C(C)C)C2)ncc1C(=O)Nc1cn2cc(C)nc2c(C)n1 [Compound 65] | 0.5 to 1 µM | – |
| CCOc1nc(N2CCC(C3(O)CCNCC3)CC2)ncc1C(=O)Nc1cn2cc(C)nc2c(C)n1 [Compound 66] | – | < 50% |
| CCOc1nc(N2CC3(CCNCC3)CC2C)ncc1C(=O)Nc1cn2cc(C)nc2c(C)n1 (centres unmarked) [Compound 68] | > 3 µM | – |
| CCOc1nc(N2CC(C3CCNC3)C2)ncc1C(=O)Nc1cn2cc(C)nc2c(C)n1 (centres unmarked) [Compound 69] | – | 50 to 75% |
| CCNC1CCN(c2ncc(C(=O)Nc3cn4cc(C)nc4c(C)n3)c(OCC)n2)C1 (centres unmarked) [Compound 70] | < 0.5 µM | – |
| CCOc1nc(N2CCC(NCC3CC3)CC2)ncc1C(=O)Nc1cn2cc(C)nc2c(C)n1 [Compound 74] | > 3 µM | – |
| CCOc1nc(N2CCC(C3(O)CNC3)CC2)ncc1C(=O)Nc1cn2cc(C)nc2c(C)n1 [Compound 75] | – | < 50% |

| SMILES | IC50 | activation at 5 µM |
| --- | --- | --- |
| CCOc1nc(N2CCC(CNC)CC2)ncc1C(=O)Nc1cn2cc(C)nc2c(C)n1 [Compound 76] | < 0.5 µM | – |
| CCOc1nc(N2CCC3(CNC3)C2)ncc1C(=O)Nc1cn2cc(C)nc2c(C)n1 [Compound 78] | < 0.5 µM | – |
| CCOc1nc(N2CCC3(CCNC3)C2)ncc1C(=O)Nc1cn2cc(C)nc2c(C)n1 (centres unmarked) [Compound 80] | < 0.5 µM | – |
| CCOc1nc(N(C)C2CCNC2)ncc1C(=O)Nc1cn2cc(C)nc2c(C)n1 (centres unmarked) [Compound 81] | 1 to 3 µM | – |
| CCOc1nc(N2CCC3(CC2)CNC3)ncc1C(=O)Nc1cn2cc(C)nc2c(C)n1 [Compound 86] | < 0.5 µM | – |
| CCOc1nc(N2CC3(CCCNC3)C2)ncc1C(=O)Nc1cn2cc(C)nc2c(C)n1 [Compound 87] | 1 to 3 µM | – |
| CCOc1nc(N2CCC3(CCNCC3)C2)ncc1C(=O)Nc1cn2cc(C)nc2c(C)n1 [Compound 88] | < 0.5 µM | – |
| CCOc1nc(N2CCC3(CCNC3)CC2)ncc1C(=O)Nc1cn2cc(C)nc2c(C)n1 [Compound 89] | > 3 µM | – |
| CCOc1nc(N2CC(CO)C3(CCNCC3)C2)ncc1C(=O)Nc1cn2cc(C)nc2c(C)n1 (centres unmarked) [Compound 91] | – | < 50% |
| CCOc1nc(N2CCNCC3(CC3)C2)ncc1C(=O)Nc1cn2cc(C)nc2c(C)n1 [Compound 92] | 1 to 3 µM | – |
| CCOc1nc(N2CCC3(CC2)COCCN3)ncc1C(=O)Nc1cn2cc(C)nc2c(C)n1 [Compound 94] | > 3 µM | – |
| CCOc1nc(N2CCC3(CCCCN3)C2)ncc1C(=O)Nc1cn2cc(C)nc2c(C)n1 (centres unmarked) [Compound 96] | 1 to 3 µM | – |
| CCOc1nc(N2CCCNCC2)ncc1C(=O)Nc1cn2cc(C)nc2c(C)n1 [Compound 103] | 1 to 3 µM | – |
| CCOc1nc(N2CC3(CNCCO3)C2)ncc1C(=O)Nc1cn2cc(C)nc2c(C)n1 [Compound 104] | > 3 µM | – |
| CCOc1nc(N2CCC3(CCCNC3)C2)ncc1C(=O)Nc1cn2cc(C)nc2c(C)n1 (centres unmarked) [Compound 106] | > 3 µM | – |
| CCOc1nc(N2CCC3CCCC(C2)N3)ncc1C(=O)Nc1cc(F)c2nc(C)cn2c1 (centres unmarked) [Compound 126] | 1 to 3 µM | – |
| CCOc1nc(N2C3CCCC2CNC3)ncc1C(=O)Nc1cc(F)c2nc(C)cn2c1 [Compound 130] | 1 to 3 µM | – |

Second part, led by results:

| IC50 | SMILES | activation at 5 µM |
| --- | --- | --- |
| > 3 µM | CCOc1nc(N2CC(C3CNC3)C2)ncc1C(=O)Nc1cn2cc(C)nc2c(C)n1 [Compound 52] | – |
| 0.5 to 1 µM | CCOc1nc(N2CC3CCC2CN3)ncc1C(=O)Nc1cn2cc(C)nc2c(C)n1 (centres unmarked) [Compound 53] | – |
| > 3 µM | CCOc1nc(N2C[C@@H]3C[C@H]2CN3)ncc1C(=O)Nc1cn2cc(C)nc2c(C)n1 [Compound 55] | – |
| < 0.5 µM | CCOc1nc(N2CC(C3CCCCCN3)C2)ncc1C(=O)Nc1cn2cc(C)nc2c(C)n1 (centres unmarked) [Compound 59] | – |
| 0.5 to 1 µM | CCOc1nc(N2C[C@@H](C)N[C@@H](C)C2)ncc1C(=O)Nc1cn2cc(C)nc2c(C)n1 [Compound 67] | – |
| 0.5 to 1 µM | CCOc1nc(N2CCNC(C)CC2)ncc1C(=O)Nc1cn2cc(C)nc2c(C)n1 (centres unmarked) [Compound 71] | – |
| 0.5 to 1 µM | CCOc1nc(N2CCC(C3CCCN3)CC2)ncc1C(=O)Nc1cn2cc(C)nc2c(C)n1 (centres unmarked) [Compound 73] | – |
| < 0.5 µM | CCOc1nc(N2CC3CNCCC32)ncc1C(=O)Nc1cn2cc(C)nc2c(C)n1 (centres unmarked) [Compound 77] | – |
| 1 to 3 µM | CCOc1nc(N2CCC3(CCN3)C2)ncc1C(=O)Nc1cn2cc(C)nc2c(C)n1 (centres unmarked) [Compound 82] | – |
| < 0.5 µM | CCOc1nc(N2C[C@H]3CNC[C@H]3C2)ncc1C(=O)Nc1cn2cc(C)nc2c(C)n1 [Compound 84] | – |
| > 3 µM | CCOc1nc(N2CC3CNC(C3)C2)ncc1C(=O)Nc1cn2cc(C)nc2c(C)n1 (centres unmarked) [Compound 85] | – |
| 1 to 3 µM | CCOc1nc(N2CC3CCC2C2CNCC32)ncc1C(=O)Nc1cn2cc(C)nc2c(C)n1 (centres unmarked) [Compound 97] | – |
| < 0.5 µM | CCOc1nc(N2CCC(NC)C2)ncc1C(=O)Nc1cn2cc(C)nc2c(C)n1 (centres unmarked) [Compound 99] | – |
| > 3 µM | CCNC1CN(c2ncc(C(=O)Nc3cn4cc(C)nc4c(C)n3)c(OCC)n2)C1 [Compound 100] | – |
| 0.5 to 1 µM | CCOc1nc(N2CCNC(C)C2)ncc1C(=O)Nc1cn2cc(C)nc2c(C)n1 (centres unmarked) [Compound 102] | – |
| 1 to 3 µM | CCOc1nc(N2CCC(N3CCNCC3)C2)ncc1C(=O)Nc1cc(F)c2nc(C)cn2c1 (centres unmarked) [Compound 107] | – |
| 0.5 to 1 µM | CCOc1nc(N2CCCC(C3CCNC3)C2)ncc1C(=O)Nc1cc(F)c2nc(C)cn2c1 (centres unmarked) [Compound 108] | – |
| 1 to 3 µM | CCOc1nc(N2CCNCC(CO)C2)ncc1C(=O)Nc1cc(F)c2nc(C)cn2c1 (centres unmarked) [Compound 109] | – |
| 1 to 3 µM | CCOc1nc(N2CCNC(CC(F)F)C2)ncc1C(=O)Nc1cc(F)c2nc(C)cn2c1 (centres unmarked) [Compound 110] | – |
| > 3 µM | CCOc1nc(N2CCNC(CF)C2)ncc1C(=O)Nc1cc(F)c2nc(C)cn2c1 (centres unmarked) [Compound 111] | – |

| IC50 | SMILES | activation at 5 µM |
| --- | --- | --- |
| 1 to 3 µM | CCOc1nc(N2CCNCC2C(F)F)ncc1C(=O)Nc1cc(F)c2nc(C)cn2c1 (centres unmarked) [Compound 112] | – |
| 1 to 3 µM | CCOc1nc(N2CCNCC2C2CC2)ncc1C(=O)Nc1cc(F)c2nc(C)cn2c1 (centres unmarked) [Compound 113] | – |
| < 0.5 µM | CCOc1nc(N2CC3=C(CNC3)C2)ncc1C(=O)Nc1cc(F)c2nc(C)cn2c1 [Compound 114] | – |
| > 3 µM | CCOc1nc(N2CCNC(C(F)F)C2)ncc1C(=O)Nc1cc(F)c2nc(C)cn2c1 (centres unmarked) [Compound 115] | – |
| < 0.5 µM | CCOc1nc(N2CCNCC3(CC3)C2)ncc1C(=O)Nc1cc(F)c2nc(C)cn2c1 [Compound 116] | – |
| 1 to 3 µM | CCOc1nc(N(C)C[C@H]2[C@@H]3CNC[C@@H]32)ncc1C(=O)Nc1cc(F)c2nc(C)cn2c1 [Compound 117] | – |
| 1 to 3 µM | CCOc1nc(N2CCNCC(C)(C)C2)ncc1C(=O)Nc1cc(F)c2nc(C)cn2c1 [Compound 118] | – |
| < 0.5 µM | CCOc1nc(N2CCC(CNC(C)C)CC2)ncc1C(=O)Nc1cc(F)c2nc(C)cn2c1 [Compound 119] | – |
| < 0.5 µM | CCOc1nc(N2CCC(C3CCCN3)C2)ncc1C(=O)Nc1cc(F)c2nc(C)cn2c1 (centres unmarked) [Compound 120] | – |
| 1 to 3 µM | CCOc1nc(N2CCCNC(CO)C2)ncc1C(=O)Nc1cc(F)c2nc(C)cn2c1 (centres unmarked) [Compound 121] | – |
| 0.5 to 1 µM | CCOc1nc(N2CCCC3NCCCC32)ncc1C(=O)Nc1cc(F)c2nc(C)cn2c1 (centres unmarked) [Compound 122] | – |
| < 0.5 µM | CCOc1nc(N2CCC(C3NCC3(C)C)CC2)ncc1C(=O)Nc1cc(F)c2nc(C)cn2c1 (centres unmarked) [Compound 123] | – |
| 0.5 to 1 µM | CCOc1nc(N2CC3C4CCC(NC4)C3C2)ncc1C(=O)Nc1cc(F)c2nc(C)cn2c1 (centres unmarked) [Compound 125] | – |
| 0.5 to 1 µM | CCOc1nc(N2CCC(C3CCNC3)C2)ncc1C(=O)Nc1cc(F)c2nc(C)cn2c1 (centres unmarked) [Compound 127] | – |
| < 0.5 µM | CCOc1nc(N2CC3CCC2C2CNCC32)ncc1C(=O)Nc1cc(F)c2nc(C)cn2c1 (centres unmarked) [Compound 128] | – |
| > 3 µM | CCOc1nc(N2CCC(C3(O)CNC3)CC2)ncc1C(=O)Nc1cc(F)c2nc(C)cn2c1 [Compound 129] | – |
| 0.5 to 1 µM | CCOc1nc(N2CC(C)CNC(C)C2)ncc1C(=O)Nc1cc(F)c2nc(C)cn2c1 (centres unmarked) [Compound 131] | – |
| < 0.5 µM | CCOc1nc(N2CCCC3CNCCC32)ncc1C(=O)Nc1cc(F)c2nc(C)cn2c1 (centres unmarked) [Compound 132] | – |
| 0.5 to 1 µM | CCOc1nc(N2CCC(C3NCC34CCC4)CC2)ncc1C(=O)Nc1cc(F)c2nc(C)cn2c1 (centres unmarked) [Compound 133] | – |
| 1 to 3 µM | CCOc1nc(N2CC3CNC(C3)C2)ncc1C(=O)Nc1cc(F)c2nc(C)cn2c1 (centres unmarked) [Compound 134] | – |
